Measurements as given in patent US6635250B2, “Use of certain metalloproteinase inhibitors for treating nerve disorders mediated by nucleus pulpsus” (A+ Science AB (publ), priority 1998, dated 2003).

Assays:
nerve roots = conditions: cited from earlier work
[1] = test system: sacrococcygeal cauda equina; test: Series-3: nerve root conduction velocity seven days after autologous nucleus pulposus application; format: in vivo; conditions: pig, systemic treatment
Protocol: Series-3: Thirteen pigs had autologous nucleus pulposus placed onto their sacrococcygeal cauda equina similar to series-2. Five pigs (bodyweight 25 kg) received REMICADE® (infliximab) 100 mg i.v. preoperatively, and 8 pigs received ENBREL® (etanercept) 12.5 mg s.c. preoperatively and additionally 12.5 mg s.c. three days after the operation. Seven days after the nucleus pulposus-application the nerve root conduction velocity was determined over the application zone by local electrical stimulation according to series-2. Series-3: Thirteen pigs had autologous nucleus pulposus placed onto their sacrococcygeal cauda equina similar to series-2. […] Seven days after the nucleus pulposus-application the nerve root conduction velocity was determined over the application zone by local electrical stimulation according to series-2. […] The statistical difference between the groups, infliximab, and etanercept, nucleus pulposus without treatment (positive control from previous data) and application of retroperitoneal fat (negative control from previous data) was assessed by using ANOVA and Fisher's PLSD at 5%.

[2] = test system: inducible nitrogen oxide synthetase; conditions: cited from earlier work

| Molecule | block of nucleus pulposus-related effects (nerve roots) | block of nucleus pulposus induced nerve injury (nerve conduction velocity) [1] | further results |
| --- | --- | --- | --- |
| CCN(CC)CC(=O)Nc1c(C)cccc1C [lidocaine] | slightly less efficiently |  |  |
| infliximab [REMICADE ®] |  | blocked the nucleus pulposus induced nerve injury efficiently |  |
| etanercept [EMBREL ®] |  | blocked the nucleus pulposus induced nerve injury efficiently |  |
| COc1ccc2c(c1)c(CC(=O)O)c(C)n2C(=O)c1ccc(Cl)cc1 [indomethacin] | slightly less efficiently |  |  |
| N=C(N)NN [Aminoguanidine] |  |  | inhibition of release of nitrogen oxide (NO) at nerve root injuries [2]: inhibit the release of nitrogen oxide (NO) |
